Measurements published in US8268813B2, “Zilpaterol enantiomer compositions and methods of making and using such compositions” (Intervet International B.V., priority 2006, dated 2012).
Several values for one entry are separate records, joined by “and”; a condition that tells them apart may be missing. Equal values may be shown once. Read-outs that look alike come from different tables or passages of the source.

Key:
human μ-opioid receptor = target: T1, human μ-opioid receptor (Homo sapiens, UniProt P35372); assay: Radioligand binding assay, [3H]DAMGO, transfected HEK-293 cell membranes
T1 construct: expressed in transfected cells; host or cells: HEK-293 cells; membrane homogenates
T1 sequence (P35372 whole entry): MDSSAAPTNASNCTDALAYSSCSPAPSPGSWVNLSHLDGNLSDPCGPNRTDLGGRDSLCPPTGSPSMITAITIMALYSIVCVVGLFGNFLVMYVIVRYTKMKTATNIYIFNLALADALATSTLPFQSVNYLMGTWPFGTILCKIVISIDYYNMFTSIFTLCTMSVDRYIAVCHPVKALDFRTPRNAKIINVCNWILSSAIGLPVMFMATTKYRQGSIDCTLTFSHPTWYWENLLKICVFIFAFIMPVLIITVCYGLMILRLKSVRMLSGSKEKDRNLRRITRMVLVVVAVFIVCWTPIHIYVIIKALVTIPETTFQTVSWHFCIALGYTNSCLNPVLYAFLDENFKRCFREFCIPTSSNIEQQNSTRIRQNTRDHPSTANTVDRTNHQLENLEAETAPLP
Protocol: This investigation was conducted using a radioligand binding assay.
Non-specific binding was determined in the presence of 10 μM naloxone. Assay volume and format was 250 μl in 96-well plate. The test compound was added as a 10-fold concentrated solution, and the maximum tolerable DMSO concentration was 1%. Following incubation, the samples were filtered rapidly under vacuum through glass fiber filters (GF/B, Packard), pre-soaked with 0.3% PEI, and rinsed several times with ice-cold 50 mM Tris-HCl using a 96-sample cell harvester (Unifilter, Packard). The filters were dried, and counted for radioactivity in a scintillation counter (Topcount, Packard) using a scintillation cocktail (Microscint 0, Packard). The results were expressed as percent inhibition of the control radioligand specific binding.
Specific ligand binding to the receptors is the difference between the total binding and the non-specific binding determined in the presence of an excess of unlabelled ligand. The results are expressed as a percent of control specific binding and as a percent inhibition of control specific binding obtained in the presence of the test compounds.
The IC50 values (concentration causing a half-maximal inhibition of control specific binding) and Hill coefficients (nH) were determined by non-linear regression analysis of the competition curves using Hill equation curve fitting. […] Here, L is the concentration of radioligand in the assay, and KD is the affinity of the radioligand for the receptor.

μ-opioid receptor = assay: Functional ex-vivo isolated organ bioassay (Guinea pig ileum), μ-opioid agonist response; details: Applicants believe results may be faulty
[1] = target: β2 adrenergic receptors in guinea pig trachea (Cavia porcellus, UniProt Q8K4Z4)
β2 adrenergic receptors in guinea pig trachea, sequence (Q8K4Z4 whole entry): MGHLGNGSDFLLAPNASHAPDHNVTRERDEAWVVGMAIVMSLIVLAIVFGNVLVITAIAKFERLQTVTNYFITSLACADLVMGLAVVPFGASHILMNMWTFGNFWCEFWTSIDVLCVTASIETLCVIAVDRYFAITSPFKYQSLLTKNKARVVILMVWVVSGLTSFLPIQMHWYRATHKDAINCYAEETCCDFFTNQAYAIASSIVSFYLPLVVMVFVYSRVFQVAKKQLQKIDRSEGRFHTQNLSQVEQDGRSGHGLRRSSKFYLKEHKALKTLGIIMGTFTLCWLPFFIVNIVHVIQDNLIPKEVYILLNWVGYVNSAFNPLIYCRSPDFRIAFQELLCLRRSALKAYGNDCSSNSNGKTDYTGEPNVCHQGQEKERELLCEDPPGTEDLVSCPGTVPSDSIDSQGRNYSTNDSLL
Protocol: In this experiment, β2 adrenergic receptor agonist activities were functionally determined using a quantitative ex-vivo guinea pig trachea bioassay. […] Following extensive washings and recovery to the initial state, the tissues were exposed to a single or several cumulative concentrations of the test compounds or the same agonist. Each concentration was left in contact with the tissues until a stable response was obtained. […] Assay volume and format was 20 ml organ baths. […] Following washings, the tissues were contracted again with carbachol, and then exposed to increasing concentrations of the test compound or the same agonist. […] If it occurred, a recovery of contraction by the test compound indicated an antagonist activity at the β2 receptors. The parameter measured was the maximal change in tension induced by each compound concentration. […] The agonist efficacy and potency of the test compounds were evaluated respectively in terms of Emax values (maximum response) and EC50 values (concentration producing a half-maximum response). These were determined from the concentration-response curves.

[2] = Table 12, test concentration 1.0E−03 M
[3] = Table 12, test concentration 1.0E−04 M
[4] = Table 12, test concentration 1.0E−05 M
[5] = Table 12, test concentration 1.0E−06 M
[6] = Table 12, test concentration 3.0E−05 M
[7] = Table 12, test concentration 3.0E−06 M
[8] = Table 12, test concentration 3.0E−07 M
[9] = Table 12, test concentration 3.0E−08 M
[10] = calculated from the data in Table 12
[11] = first assay, test concentration 1.0E−05 M
[12] = repeat assay, test concentration 1.0E−03 M
[13] = Table 12, test concentration 3.0E−04 M

Structure (SMILES)	IC50 (human μ-opioid receptor)	Ki (human μ-opioid receptor)	binding to the μ-opioid receptor (human μ-opioid receptor)	% of Control Specific Binding, Mean (human μ-opioid receptor; [2])	% of Control Specific Binding, Run 1 (human μ-opioid receptor; [2])	% of Control Specific Binding, Run 2 (human μ-opioid receptor; [2])	% of Control Specific Binding, Mean (human μ-opioid receptor; [3])	% of Control Specific Binding, Run 1 (human μ-opioid receptor; [3])	% of Control Specific Binding, Run 2 (human μ-opioid receptor; [3])	% of Control Specific Binding, Mean (human μ-opioid receptor; [4])	% of Control Specific Binding, Run 1 (human μ-opioid receptor; [4])	% of Control Specific Binding, Run 2 (human μ-opioid receptor; [4])	% of Control Specific Binding, Mean (human μ-opioid receptor; [5])	% of Control Specific Binding, Run 2 (human μ-opioid receptor; [5])	% of Control Specific Binding, Mean (human μ-opioid receptor; [6])	% of Control Specific Binding, Run 1 (human μ-opioid receptor; [6])	% of Control Specific Binding, Run 2 (human μ-opioid receptor; [6])	% of Control Specific Binding, Run 1 (human μ-opioid receptor; [7])	% of Control Specific Binding, Run 2 (human μ-opioid receptor; [7])	% of Control Specific Binding, Mean (human μ-opioid receptor; [8])	further results
CC(C)NC1CCn2c(=O)[nH]c3cccc(c32)C1O (racemic) [Racemic trans, 4,5,6,7-tetrahydro-7-hydroxy-6-(isopropylamino)imidazo[4,5,1-jk]-[1]benzazepin-2(1H)-one, reference compound]	31 µM	13 µM	greater binding	2.9%	2.4%	3.3%	23.7%	24.5%	22.9%	73.7%	76.7%	70.8%	90.0%	95.1%	47.5%	49.3%	45.6%	76.2%	87.4%	91.2%	% of Control Specific Binding, Run 1 (human μ-opioid receptor; [5]): 84.9%; % of Control Specific Binding, Mean (human μ-opioid receptor; [7]): 81.8%; % of Control Specific Binding, Run 1 (human μ-opioid receptor; [8]): 92.1%; % of Control Specific Binding, Mean (human μ-opioid receptor; [9]): 98.3%; % of Control Specific Binding, Run 1 (human μ-opioid receptor; [9]): 105.8%; % of Control Specific Binding, Run 2 (human μ-opioid receptor; [9]): 90.9%; nH (Hill coefficient) (human μ-opioid receptor; [10]): 0.9; % Inhibition of Control Specific Binding (human μ-opioid receptor; [11]): 24%; % of Control Specific Binding, Mean (human μ-opioid receptor; [11]): 76.2%; % of Control Specific Binding, Run 1 (human μ-opioid receptor; [11]): 76.2%; % of Control Specific Binding, Run 2 (human μ-opioid receptor; [11]): 76.2%; % Inhibition of Control Specific Binding (human μ-opioid receptor; [12]): 98%; % of Control Specific Binding, Mean (human μ-opioid receptor; [12]): 2.2%; % of Control Specific Binding, Run 1 (human μ-opioid receptor; [12]): 1.6%; % of Control Specific Binding, Run 2 (human μ-opioid receptor; [12]): 2.9%
CC(C)N[C@@H]1CCn2c(=O)[nH]c3cccc(c32)[C@H]1O (single isomer, unassigned) [6R,7R enantiomer, 6R,7R zilpaterol enantiomer]	320 µM	130 µM	binds weakly	24.1%	23.0%	25.2%	71.1%	71.3%	70.8%	81.3%	80.4%	82.1%	89.3%	87.5%	80.7%	73.9%	87.5%	92.1%	88.7%	93.6%	% of Control Specific Binding, Mean (human μ-opioid receptor; [13]): 43.5%; % of Control Specific Binding, Run 2 (human μ-opioid receptor; [13]): 40.4%; % of Control Specific Binding, Run 1 (human μ-opioid receptor; [8]): 94.8%; % of Control Specific Binding, Run 2 (human μ-opioid receptor; [8]): 92.4%; nH (Hill coefficient) (human μ-opioid receptor; [10]): 0.9; Ki (human μ-opioid receptor; calculated from the data in Table 12, Cheng Prusoff): 130 µM; % Inhibition of Control Specific Binding (human μ-opioid receptor; [11]): 7%; % of Control Specific Binding, Mean (human μ-opioid receptor; [11]): 92.9%; % of Control Specific Binding, Run 1 (human μ-opioid receptor; [11]): 90.8%; % of Control Specific Binding, Run 2 (human μ-opioid receptor; [11]): 95.0%; % Inhibition of Control Specific Binding (human μ-opioid receptor; [12]): 82%; % of Control Specific Binding, Mean (human μ-opioid receptor; [12]): 17.9%; % of Control Specific Binding, Run 1 (human μ-opioid receptor; [12]): 17.8%; % of Control Specific Binding, Run 2 (human μ-opioid receptor; [12]): 18.0%; μ-opioid agonist response (μ-opioid receptor): greater μ-opioid agonist response than both the 6S,7S zilpaterol enantiomer and racemic trans zilpaterol
CC(C)N[C@H]1CCn2c(=O)[nH]c3cccc(c32)[C@@H]1O [6S,7S enantiomer, 6S,7S zilpaterol enantiomer]	17 µM	7 µM	greater binding	1.2%	1.4%	0.9%	16.4%	15.9%	16.9%	60.2%	61.1%	59.2%	87.7%	84.6%	36.1%	34.9%	37.2%	81.0%	77.2%	95.3%	% of Control Specific Binding, Run 1 (human μ-opioid receptor; [5]): 90.9%; % of Control Specific Binding, Mean (human μ-opioid receptor; [7]): 79.1%; % of Control Specific Binding, Run 1 (human μ-opioid receptor; [8]): 97.5%; % of Control Specific Binding, Run 2 (human μ-opioid receptor; [8]): 93.2%; % of Control Specific Binding, Mean (human μ-opioid receptor; [9]): 95.8%; % of Control Specific Binding, Run 1 (human μ-opioid receptor; [9]): 93.9%; % of Control Specific Binding, Run 2 (human μ-opioid receptor; [9]): 97.7%; nH (Hill coefficient) (human μ-opioid receptor; [10]): 0.9; % Inhibition of Control Specific Binding (human μ-opioid receptor; [11]): 34%; % of Control Specific Binding, Mean (human μ-opioid receptor; [11]): 66.3%; % of Control Specific Binding, Run 1 (human μ-opioid receptor; [11]): 67.2%; % of Control Specific Binding, Run 2 (human μ-opioid receptor; [11]): 65.4%; % Inhibition of Control Specific Binding (human μ-opioid receptor; [12]): 100%; % of Control Specific Binding, Mean (human μ-opioid receptor; [12]): 0.2%; % of Control Specific Binding, Run 1 (human μ-opioid receptor; [12]): 0.1%; % of Control Specific Binding, Run 2 (human μ-opioid receptor; [12]): 0.4%
C[C@@H](NC(=O)[C@@H](N)Cc1ccc(O)cc1)C(=O)NCC(=O)N(C)[C@@H](Cc1ccccc1)C(=O)NCCO [DAMGO, reference compound]																					nH (Hill coefficient) (human μ-opioid receptor; reference compound, three independent experiments): 1.0 and 0.9
CC(C)(C)NCC(O)c1ccc(O)c(CO)c1 (centres unmarked) [Salbutamol, salbutamol]																					Percent of the Control Response to Salbutamol at 3.0E−07 M, Mean ([1]; Table 6, concentration 3.0E−08 M): 50%; Percent of the Control Response to Salbutamol at 3.0E−07 M, Mean ([1]; Table 6, concentration 3.0E−09 M): 8%; Percent of the Control Response to Salbutamol at 3.0E−07 M, Mean ([1]; Table 6, highest concentration 3.0E−07 M + ICI 118551 3.0E−07 M): 2%; Percent of the Control Response to Salbutamol at 3.0E−07 M, Mean ([1]; Table 7, concentration 3.0E−08 M): 53%; Percent of the Control Response to Salbutamol at 3.0E−07 M, Mean ([1]; Table 7, concentration 3.0E−09 M): 11%; Percent of the Control Response to Salbutamol at 3.0E−07 M, Mean ([1]; Table 7, highest concentration 3.0E−07 M + ICI 118551 3.0E−07 M): 5%
